Reference: article PMC11396839, “Structure-Aided Computational Design of Triazole-Based Targeted Covalent Inhibitors of Cruzipain” (Molecules, 2024)
Values joined by “and” are separate entries in the source; they are usually repeats but may differ in a detail not shown here. Equal entries are not always repeated. Where two headings read alike, the source gives them in different places.

Columns and labels:
[1] = target: T1, recombinant CZP (cruzain) (Trypanosoma cruzi, UniProt P25779); assay: CZP inhibition, cleavage of fluorogenic substrate Z-FR-AMC (initial screening and IC50); assay type: biochemical, T. cruzi
T1 construct: gift of Allison Doak and Prof; Brian Shoichet (University of California San Francisco)
T1 sequence (P25779 123-337): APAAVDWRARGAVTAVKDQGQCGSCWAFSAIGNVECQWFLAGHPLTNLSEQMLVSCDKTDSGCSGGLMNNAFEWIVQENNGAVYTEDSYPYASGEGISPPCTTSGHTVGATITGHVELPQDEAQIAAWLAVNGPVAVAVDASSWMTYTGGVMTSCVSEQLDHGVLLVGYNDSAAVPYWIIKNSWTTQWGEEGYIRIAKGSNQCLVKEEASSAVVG
Protocol: The previously reported methods were followed to evaluate the in vitro activity against CZP [91, 92, 93, 94]. Allison Doak and Prof. Brian Shoichet (University of California San Francisco, San Francisco, CA, USA) generously provided recombinant CZP (cruzain). The enzyme activity was measured by monitoring the cleavage of the fluorogenic substrate Z-FR-AMC at 25 °C. Unless stated otherwise, assays were performed using 2.5 μ M of substrate ( KM = 0.5 ± 0.1 μ M) and 0.5 nM CZP in a 0.1 M sodium acetate buffer, pH 5.5, 0.01% Triton X-100 and 2 mM β -mercaptoethanol. DMSO and 1 μ M E-64 were employed as negative and positive controls, respectively, in all assays. Fluorescence was monitored at 340/440 nm (excitation/emission) over time in a Biotec 87 Synergy 2 fluorimeter at the Multiuser Laboratory of the Biochemistry and Immunology Department (UFMG, Belo Horizonte, Brazil). All assays were performed in triplicate in two independent experiments.
Initial screening. For the initial screening against CZP, compounds at 100 μ M were tested against CZP with and without a 10min pre-incubation with the enzyme. The fluorescence was monitored for 10 min at 5 s intervals. DMSO and E-64 were employed in all assays as negative and positive controls, respectively. Initial velocities of the negative control (DMSO) were compared to those in the presence of compounds to calculate the percentage of inhibition. The reported values correspond to the mean and standard error of the mean (SEM) of experiments performed in triplicate in two independent experiments.
IC50 determination. Compounds in at least eight distinct compound concentrations (400 μ M, 100 μ M, 25 μ M, 6.25 μ M, 1.5 μ M, 0.4 μ M, 0.1 μ M and 0.025 μ M) were incubated with CZP for 10 min, and once the substrate was added, the fluorescence was monitored for 10 min at 5 s intervals. IC50 curves were obtained from a non-linear fit of the inhibition values versus the logarithmic concentration of the compounds. The reported IC50 values are the mean and SEM of two independent measurements performed in triplicate.

[2] = test system: T. cruzi (Tulahuen trypomastigotes overexpressing β-galactosidase) in Vero cells; assay: T. cruzi inhibition assay, infection model in Vero cells, β-galactosidase activity; assay type: cell-based, Trypanosoma cruzi; conditions: 50 μM, 72 h p.i.
Vero cells = assay: Cytotoxicity assay, Alamar blue; assay type: cell-based; conditions: 50 μM, 96 h incubation
Protocol: To evaluate the viability of Vero cells, the Alamar blue method was followed. First, 10^4 Vero cells/well in 100 μ L MEM-10% FBS were seeded in 96-well culture plates. After 24 h, 50 μ M inhibitor solution was added to cell monolayers and incubated for 96 h. After incubation, resazurin solution (final concentration 10 μ g·mL^−1) was added to each well, and fluorescence was measured after 2 h in a Synergy HTX multi-mode microplate reader (Biotek Instruments, Winooski, VT, USA) using the […] filters. Each condition was tested in triplicate and in at least three independent experiments.

CZP [3] = target: T2, CZP (Trypanosoma cruzi, UniProt P25779); assay: Jump dilution assay on CZP; assay type: biochemical, T. cruzi; conditions: for slope of progress curve relative to control (DMSO): 10 × IC50 with 100 × [CZP] 30 min, 100× dilution, 2 h monitoring; for mode of CZP inhibition from jump dilution: in words
T2 construct: gift of Allison Doak and Prof; Brian Shoichet (University of California San Francisco)
T2 sequence (P25779 123-337): as above
Protocol: Jump dilution assay. […] Fluorescence intensities were monitored continuously for 2 h.

[4] = target: T3, recombinant human cathepsin L (hCatL) (Homo sapiens, UniProt P07711); assay: hCatL screening, cleavage of Z-FR-AMC; assay type: biochemical; conditions: for selectivity for CZP over hCatL in words: 100 μM; for inhibition at 100 µM: 10 min incubation, read-out: % hCatL inhib.
T3 construct: purchased Sigma-Aldrich
T3 sequence (P07711 114-333): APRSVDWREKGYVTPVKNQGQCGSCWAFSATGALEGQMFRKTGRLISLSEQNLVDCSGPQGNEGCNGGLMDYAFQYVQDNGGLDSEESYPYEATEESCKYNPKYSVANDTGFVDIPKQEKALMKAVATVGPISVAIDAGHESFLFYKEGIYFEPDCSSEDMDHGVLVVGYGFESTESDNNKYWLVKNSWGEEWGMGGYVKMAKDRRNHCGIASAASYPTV
Protocol: The recombinant human cathepsin L (hCatL) (Sigma-Aldrich) was activated prior to the assays. First, 10 ng/ μ L of the enzyme was incubated in the activation buffer (50 mM MES, pH 6, 1 mM EDTA, 5mM DTT) for 30 min at 37 °C. hCatL activity was measured based on the cleavage of the fluorescent substrate Z-FR-AMC in a Biotec 87 Synergy 2 fluorimeter at the Multiuser Laboratory of the Biochemistry and Immunology Department (UFMG, Brazil). The assays were executed in 96-well round bottom black plates in 50 mM MES buffer, pH 6, containing 1 mM EDTA, 5 mM DTT, 0.001% Triton-X100, 5 pg/ μ L enzyme and 25 μ M Z-FR-AMC at 37 °C. The triazole-based derivatives were tested against hCatL, at 100 μ M, with a 10 min pre-incubation with the enzyme. The initial velocities of the DMSO control were compared to those in the presence of the compounds. Assays were executed in triplicate in two independent experiments, and enzyme activity was measured for 20 min.

[5] = test system: T. cruzi (Tulahuen trypomastigotes overexpressing β-galactosidase) in Vero cells; assay: T. cruzi inhibition assay, infection model in Vero cells, β-galactosidase activity; assay type: cell-based, Trypanosoma cruzi; conditions: for anti-T. cruzi/cytotoxicity balance in words: 50 μM (Ald-4 20 μM)
Protocol: To perform the assay, the drug screening method reported by Buckner et al. was adapted. Vero cells were seeded at 1 × 10^4 per well on 96-well culture plates in 100 μ L MEM-5% FBS. Tulahuen trypomastigotes overexpressing the E. coli β -galactosidase protein were distributed in triplicates on the plate. After a 2 h incubation at 37 °C, the culture media were extracted and replaced with fresh MEM-5% FBS with 1 μ M, 10 μ M or 50 μ M solutions of the triazole-based inhibitors, and the plate was incubated another 72 h at 37 °C. Ninety-six hours post infection, the cell culture media were removed and cells and intracellular amastigotes were lysed in 100 μ L lysis buffer (25 mM Tris pH 8, 2 mM EDTA, 2 mM DTT, 1% Triton X-100, 10% glycerol in ultrapure MQ water) for 10 min at 37 °C. Then, 100 μ L 2× reaction buffer (200 mM sodium phosphate pH 8, 2 mM MgCl2, 100 mM 2-mercaptoethanol and 1.33 mg.mL^−1 o-nitrophenyl- β -galactoside (ONPG)) was added and the reaction was allowed to proceed until a yellow color developed (1–2 h at 37 °C). The absorbance at 420 nm was measured in a Synergy HTX multi-mode microplate reader (Biotek Instruments, Winooski, VT, USA) and normalized to the value obtained for the infection in the absence of inhibitors. To determine its IC50, Ald-6 was evaluated at nine different concentrations (0.098, 0.195, 0.39, 0.78, 1.56 3.13 6.25, 12.5 and 50.0 μ M), following the same protocol. Each infection condition and inhibitor were tested in triplicates in four independent experiments.

CZP [6] = target: T2, CZP; assay: Aggregation assays (Triton X-100 sensitivity, BSA preincubation) on CZP; assay type: biochemical, T. cruzi; conditions: for CZP activity inhibition percentage, Triton 0% + BSA: compound at its IC50, 10-min preincubation with 4 mg/mL BSA; for CZP activity inhibition percentage, Triton 0% / CZP activity inhibition percentage, Triton 0.01% / CZP activity inhibition percentage, Triton 0.1%: compound at its IC50, 10 min preincubation
Protocol: Aggregation Assays. To evaluate detergent sensitivity, CZP was pre-incubated with compounds at their IC50 for 10 min at room temperature in varying concentrations of Triton X-100 (0%, 0.1% and 0.01%). […] For comparison, the four conditions were assayed in parallel. Aggregation was excluded when the difference in inhibition percentages between the different conditions was less than 20%.

CZP [7] = target: T2, CZP; assay: Mechanism of CZP inhibition (Michaelis-Menten, Lineweaver-Burk); assay type: biochemical, T. cruzi
Protocol: Mechanism of inhibition. […] The results were calculated by nonlinear (Michaelis–Menten) and linear regression (Lineweaver–Burk plots). The effect of the inhibitor concentration on the KMapp and its Ki was evaluated by the general linear F-test.

T. cruzi = test system: T. cruzi; design: method as in PMID 18435536, PMID 9705954, PMID 20088534; conditions: cited from earlier work
[8] = 100 μM, 10 min pre-incubation of the enzyme with compound, read-out: % CZP inh.
[9] = 10 min incubation with CZP, mean ± SEM of two independent experiments, read-out: IC50 (μM) against CZP
[10] = read-out: % CZP inhib. wo/inc., 100 μM, without prior incubation

In the case of `NCCCCC(C=O)n1cc(C(NCc2ccc3c(c2)OCO3)C2CCCCC2)nn1` (stereo not drawn) [Ald-6], the inhibition at 100 µM [1, 8] is reported as 81 ± 2%, the IC50 [1, 9] is reported as 3.3 ± 0.3 µM and the inhibition at 100 µM [1, 10] is reported as 18 ± 3%. The reduction of infection [2] was 97%, the “cytotoxicity, uninfected Vero cell viability in words” value (Vero cells) was “low cytotoxicity” and the “slope of progress curve relative to control (DMSO)” value (CZP [3]) was “about 12%”. For the same compound, the “mode of CZP inhibition from jump dilution” value (CZP [3]) was “covalent irreversible inhibition”, the “selectivity for CZP over hCatL in words” value [4] was “selective CZP inhibitors” and the inhibition at 100 µM [4] was 26 ± 5%. For the same compound, the “reduction in T. cruzi infection” value ([5]; 1 μM) was 27%, the parasite survival ([5]; 10 μM, after 72 h of incubation) was 7% and the “anti-T. cruzi/cytotoxicity balance in words” value [5] was “acceptable anti-T. cruzi/cytotoxicity balance”. The IC50 ([5]; Trypanosoma cruzi, TULAHUEN, Vero, read-out: IC50^Tc) was 3.2 ± 0.4 µM, the “IC50^Tc/IC50^CZP ratio” value ([5]; translation ratio) was 0.97 ± 0.16 and the “CZP activity inhibition percentage, Triton 0% + BSA” value (CZP [6]) was 37± 3%. For the same compound, the “CZP activity inhibition percentage, Triton 0%” value (CZP [6]) was 43± 5%, the “CZP activity inhibition percentage, Triton 0.01%” value (CZP [6]) was 31± 3% and the “CZP activity inhibition percentage, Triton 0.1%” value (CZP [6]) was 44± 4%.
`O=CC(CO)n1cc(C(NCc2ccc3c(c2)OCO3)C2CCCCC2)nn1` (stereo not drawn) [Ald-10] showed an IC50 [1] of 3.4 ± 0.5 µM, an inhibition at 100 µM [1, 8] of 87 ± 1% and an inhibition at 100 µM [1, 10] of 21 ± 1%. For the same compound, the reduction of infection [2] was 97%, the “cytotoxicity, uninfected Vero cell viability in words” value (Vero cells) was “low cytotoxicity” and the “slope of progress curve relative to control (DMSO)” value (CZP [3]) was ~24%. The “mode of CZP inhibition from jump dilution” value (CZP [3]) was “covalent irreversible inhibition”, the “selectivity for CZP over hCatL in words” value [4] was “selective CZP inhibitors” and the inhibition at 100 µM [4] was 7 ± 2%. The “reduction of T. cruzi viability” value ([5]; 10 μM) was 38%, the “anti-T. cruzi/cytotoxicity balance in words” value [5] was “acceptable anti-T. cruzi/cytotoxicity balance” and the “CZP activity inhibition percentage, Triton 0% + BSA” value (CZP [6]) was 43± 2%. The “CZP activity inhibition percentage, Triton 0%” value (CZP [6]) was 47± 6%, the “CZP activity inhibition percentage, Triton 0.01%” value (CZP [6]) was 43± 2% and the “CZP activity inhibition percentage, Triton 0.1%” value (CZP [6]) was 46± 8%.
In the case of `COC(=O)C(CS)n1cc(C(NCc2ccc3c(c2)OCO3)C2CCCCC2)nn1` (stereo not drawn) [Es-14], the inhibition at 100 µM [1, 8] is reported as ≥ 47%, the “cytotoxicity, uninfected Vero cell viability in words” value (Vero cells) is reported as “significantly reduced cell viability” and the “selectivity for CZP over hCatL in words” value [4] is reported as “selective CZP inhibitors”. The inhibition at 100 µM [4] was 0%.
`COC(=O)C(CCCNC(=N)N)n1cc(C(NCc2ccc3c(c2)OCO3)C2CCCCC2)nn1` (stereo not drawn) [Es-15] gave an inhibition at 100 µM ([1]; 100 μM, without prior incubation, read-out: % CZP inhib. wo/inc.) of 81 ± 2%, an IC50 [1, 9] of 6.8 ± 0.3 µM and a Ki (CZP [7]; calculated, general linear F-test p = 0.0127) of 3 ± 1 µM. For the same compound, the “mechanism of CZP inhibition” value (CZP [7]; in words) was “mixed mechanism of inhibition”, the α value (CZP [7]; mixed-model fit of Michaelis-Menten data) was 8.3 and the “selectivity for CZP over hCatL in words” value [4] was “selective CZP inhibitors”. The inhibition at 100 µM [4] was 26 ± 16%, the “anti-T. cruzi/cytotoxicity balance in words” value [5] was “acceptable anti-T. cruzi/cytotoxicity balance” and the “CZP activity inhibition percentage, Triton 0% + BSA” value (CZP [6]) was 40± 3%. The “CZP activity inhibition percentage, Triton 0%” value (CZP [6]) was 44± 5%, the “CZP activity inhibition percentage, Triton 0.01%” value (CZP [6]) was 41± 1% and the “CZP activity inhibition percentage, Triton 0.1%” value (CZP [6]) was 36± 7%.
In the case of `CN1CCN(C(=O)N[C@@H](Cc2ccccc2)C(=O)N[C@H](/C=C/S(=O)(=O)c2ccccc2)CCc2ccccc2)CC1` [K777], the IC50 (T. cruzi) is listed as ~10 µM and 10 µM.
In the case of `CCCCC(C(=O)COc1c(F)c(F)cc(F)c1F)n1cc([C@@](C)(NCc2ccc3ncccc3c2)C(C)C)nn1` (stereo partly drawn) [Ts-370], the IC50 (T. cruzi) is listed as 5.1 µM.
